ChEMBL document CHEMBL4507323, “Data for DCP probe Ogerin” (2021)

Columns and labels:
[1] = biological target: Alpha-2B adrenergic receptor (Homo sapiens) (UniProt P18089); conditions: Compound concentration 10.0 uM
[2] = biological target: Sodium-dependent dopamine transporter (Homo sapiens) (UniProt Q01959); conditions: Compound concentration 10.0 uM
[3] = biological target: D(1A) dopamine receptor (Homo sapiens) (UniProt P21728); conditions: Compound concentration 10.0 uM
[4] = biological target: Alpha-2A adrenergic receptor (Homo sapiens) (UniProt P08913); conditions: Compound concentration 10.0 uM
[5] = biological target: Beta-3 adrenergic receptor (Homo sapiens) (UniProt P13945); conditions: Compound concentration 10.0 uM
[6] = biological target: Muscarinic acetylcholine receptor M4 (Homo sapiens) (UniProt P08173); conditions: Compound concentration 10.0 uM
[7] = biological target: D(3) dopamine receptor (Homo sapiens) (UniProt P35462); conditions: Compound concentration 10.0 uM
[8] = biological target: 5-hydroxytryptamine receptor 2C (Homo sapiens) (UniProt P28335); conditions: Compound concentration 10.0 uM
[9] = biological target: Beta-2 adrenergic receptor (Homo sapiens) (UniProt P07550); conditions: Compound concentration 10.0 uM
[10] = biological target: 5-hydroxytryptamine receptor 5A (Homo sapiens) (UniProt P47898); conditions: Compound concentration 10.0 uM
Chain of 5-hydroxytryptamine receptor 5A (Homo sapiens) (P47898 whole entry): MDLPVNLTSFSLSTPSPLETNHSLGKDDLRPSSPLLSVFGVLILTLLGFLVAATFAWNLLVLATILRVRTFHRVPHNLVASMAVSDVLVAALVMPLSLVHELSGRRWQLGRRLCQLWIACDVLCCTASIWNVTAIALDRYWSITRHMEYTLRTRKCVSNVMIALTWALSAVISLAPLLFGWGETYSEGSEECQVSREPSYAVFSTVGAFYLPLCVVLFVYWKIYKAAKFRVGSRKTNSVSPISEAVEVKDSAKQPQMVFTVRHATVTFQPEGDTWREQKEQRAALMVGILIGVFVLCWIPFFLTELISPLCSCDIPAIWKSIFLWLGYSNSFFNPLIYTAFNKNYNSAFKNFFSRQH

[11] = biological target: D(4) dopamine receptor (Homo sapiens) (UniProt P21917); conditions: Compound concentration 10.0 uM
[12] = biological target: Mu-type opioid receptor (Homo sapiens) (UniProt P35372); conditions: Compound concentration 10.0 uM
[13] = biological target: 5-hydroxytryptamine receptor 2A (Homo sapiens) (UniProt P28223); conditions: Compound concentration 10.0 uM
[14] = biological target: T1, 5-hydroxytryptamine receptor 2B (Homo sapiens, UniProt P41595); conditions: Compound concentration 10.0 uM
T1 sequence (P41595 whole entry): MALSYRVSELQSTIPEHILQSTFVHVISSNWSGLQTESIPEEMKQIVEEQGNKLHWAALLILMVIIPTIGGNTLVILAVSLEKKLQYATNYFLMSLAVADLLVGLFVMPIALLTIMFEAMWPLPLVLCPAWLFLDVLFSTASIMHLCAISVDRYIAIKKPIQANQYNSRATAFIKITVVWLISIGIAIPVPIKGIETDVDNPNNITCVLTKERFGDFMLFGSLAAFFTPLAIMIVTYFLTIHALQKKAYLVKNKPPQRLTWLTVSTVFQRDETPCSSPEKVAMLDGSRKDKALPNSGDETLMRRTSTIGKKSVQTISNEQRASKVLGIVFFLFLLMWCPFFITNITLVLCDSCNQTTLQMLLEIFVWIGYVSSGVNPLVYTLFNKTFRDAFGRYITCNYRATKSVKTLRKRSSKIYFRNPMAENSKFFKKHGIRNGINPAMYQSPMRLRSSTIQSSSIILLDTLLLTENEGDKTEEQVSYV

[15] = biological target: Sodium-dependent serotonin transporter (Homo sapiens) (UniProt P31645); conditions: Compound concentration 10.0 uM
[16] = biological target: T2, GABA-A receptor; anion channel (Rattus norvegicus) (UniProt O09028+P15431+P18506+P18508+P19969+P20236+P23574+P23576+P28471+P28473+P30191+P62813+P63079+P63138+Q91ZM7+Q9ES14); conditions: Compound concentration 10.0 uM
[17] = biological target: T2, GABA-A receptor; anion channel (Rattus norvegicus); conditions: Compound concentration 10.0 uM; remark: listed apart in the source
[18] = biological target: Muscarinic acetylcholine receptor M1 (Homo sapiens) (UniProt P11229); conditions: Compound concentration 10.0 uM
[19] = biological target: Histamine H3 receptor (Homo sapiens) (UniProt Q9Y5N1); conditions: Compound concentration 10.0 uM
[20] = biological target: Histamine H1 receptor (Homo sapiens) (UniProt P35367); conditions: Compound concentration 10.0 uM
Chain of Histamine H1 receptor (Homo sapiens) (P35367 whole entry): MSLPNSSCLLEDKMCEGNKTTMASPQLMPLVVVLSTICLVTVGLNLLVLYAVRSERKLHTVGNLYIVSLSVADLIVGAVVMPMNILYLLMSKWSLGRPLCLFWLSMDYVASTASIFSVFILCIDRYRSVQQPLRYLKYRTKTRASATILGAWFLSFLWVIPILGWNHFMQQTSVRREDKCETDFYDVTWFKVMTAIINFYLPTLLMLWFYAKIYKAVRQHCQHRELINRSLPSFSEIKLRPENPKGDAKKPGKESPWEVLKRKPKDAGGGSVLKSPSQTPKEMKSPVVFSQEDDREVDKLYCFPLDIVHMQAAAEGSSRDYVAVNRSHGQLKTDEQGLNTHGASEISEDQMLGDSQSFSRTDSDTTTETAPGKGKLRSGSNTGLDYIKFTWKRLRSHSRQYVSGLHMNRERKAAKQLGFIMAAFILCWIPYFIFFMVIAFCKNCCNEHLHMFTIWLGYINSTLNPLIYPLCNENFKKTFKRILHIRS

[21] = biological target: Sigma non-opioid intracellular receptor 1 (Homo sapiens) (UniProt Q99720); conditions: Compound concentration 10.0 uM
Chain of Sigma non-opioid intracellular receptor 1 (Homo sapiens) (Q99720 whole entry): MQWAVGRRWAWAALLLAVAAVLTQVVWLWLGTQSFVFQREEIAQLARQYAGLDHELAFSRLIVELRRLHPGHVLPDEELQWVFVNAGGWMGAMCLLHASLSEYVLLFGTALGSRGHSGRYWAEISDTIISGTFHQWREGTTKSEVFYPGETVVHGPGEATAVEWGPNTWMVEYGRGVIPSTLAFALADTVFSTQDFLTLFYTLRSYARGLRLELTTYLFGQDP

[22] = biological target: Muscarinic acetylcholine receptor M2 (Homo sapiens) (UniProt P08172); conditions: Compound concentration 10.0 uM
[23] = biological target: Muscarinic acetylcholine receptor M3 (Homo sapiens) (UniProt P20309); conditions: Compound concentration 10.0 uM
Chain of Muscarinic acetylcholine receptor M3 (Homo sapiens) (P20309 whole entry, looked up): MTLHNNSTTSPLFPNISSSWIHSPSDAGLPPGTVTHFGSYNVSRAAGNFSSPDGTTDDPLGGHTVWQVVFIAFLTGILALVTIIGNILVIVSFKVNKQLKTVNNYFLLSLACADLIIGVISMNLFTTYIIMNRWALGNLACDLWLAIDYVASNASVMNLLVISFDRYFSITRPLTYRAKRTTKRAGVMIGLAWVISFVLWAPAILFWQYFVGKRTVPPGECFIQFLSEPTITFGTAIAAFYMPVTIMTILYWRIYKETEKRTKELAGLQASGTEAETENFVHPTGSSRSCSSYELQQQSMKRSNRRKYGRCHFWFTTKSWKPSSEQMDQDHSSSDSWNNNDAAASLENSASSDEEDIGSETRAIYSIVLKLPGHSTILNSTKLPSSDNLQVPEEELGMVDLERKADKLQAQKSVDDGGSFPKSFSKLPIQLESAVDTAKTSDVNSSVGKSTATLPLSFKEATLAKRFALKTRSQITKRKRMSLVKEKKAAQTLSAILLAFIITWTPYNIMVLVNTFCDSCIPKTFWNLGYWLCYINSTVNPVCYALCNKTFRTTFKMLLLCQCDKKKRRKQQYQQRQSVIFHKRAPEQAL

[24] = biological target: 5-hydroxytryptamine receptor 7 (Homo sapiens) (UniProt P34969); conditions: Compound concentration 10.0 uM
[25] = biological target: Alpha-2C adrenergic receptor (Homo sapiens) (UniProt P18825); conditions: Compound concentration 10.0 uM
[26] = biological target: 5-hydroxytryptamine receptor 1A (Homo sapiens) (UniProt P08908); conditions: Compound concentration 10.0 uM
[27] = biological target: 5-hydroxytryptamine receptor 1D (Homo sapiens) (UniProt P28221); conditions: Compound concentration 10.0 uM
Chain of 5-hydroxytryptamine receptor 1D (Homo sapiens) (P28221 whole entry): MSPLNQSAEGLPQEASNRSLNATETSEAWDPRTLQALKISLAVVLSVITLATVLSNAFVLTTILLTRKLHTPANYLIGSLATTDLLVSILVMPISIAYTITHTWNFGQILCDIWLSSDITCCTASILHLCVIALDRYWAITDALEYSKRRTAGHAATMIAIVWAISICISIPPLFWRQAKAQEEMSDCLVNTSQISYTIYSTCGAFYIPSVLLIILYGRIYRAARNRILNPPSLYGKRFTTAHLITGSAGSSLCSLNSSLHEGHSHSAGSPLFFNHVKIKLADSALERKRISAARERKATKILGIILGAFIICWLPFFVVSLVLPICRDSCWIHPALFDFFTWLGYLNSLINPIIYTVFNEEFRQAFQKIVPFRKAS

[28] = biological target: D(1B) dopamine receptor (Homo sapiens) (UniProt P21918); conditions: Compound concentration 10.0 uM
[29] = biological target: 5-hydroxytryptamine receptor 1B (Homo sapiens) (UniProt P28222); conditions: Compound concentration 10.0 uM
Chain of 5-hydroxytryptamine receptor 1B (Homo sapiens) (P28222 whole entry): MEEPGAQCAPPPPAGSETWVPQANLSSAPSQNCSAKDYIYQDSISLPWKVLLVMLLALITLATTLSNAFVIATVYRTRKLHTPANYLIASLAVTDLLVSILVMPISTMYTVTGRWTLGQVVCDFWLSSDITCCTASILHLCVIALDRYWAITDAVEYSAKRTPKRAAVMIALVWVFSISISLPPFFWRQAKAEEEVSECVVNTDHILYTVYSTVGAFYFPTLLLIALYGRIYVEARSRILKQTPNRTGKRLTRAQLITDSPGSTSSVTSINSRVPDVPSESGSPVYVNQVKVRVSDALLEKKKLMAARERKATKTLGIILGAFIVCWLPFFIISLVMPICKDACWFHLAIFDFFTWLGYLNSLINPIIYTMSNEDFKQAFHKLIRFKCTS

Rattus norvegicus = species on record: Rattus norvegicus; conditions: Compound concentration 10.0 uM
[30] = biological target: Sodium-dependent noradrenaline transporter (Homo sapiens) (UniProt P23975); conditions: Compound concentration 10.0 uM
[31] = biological target: Alpha-1A adrenergic receptor (Homo sapiens) (UniProt P35348); conditions: Compound concentration 10.0 uM
Chain of Alpha-1A adrenergic receptor (Homo sapiens) (P35348 whole entry): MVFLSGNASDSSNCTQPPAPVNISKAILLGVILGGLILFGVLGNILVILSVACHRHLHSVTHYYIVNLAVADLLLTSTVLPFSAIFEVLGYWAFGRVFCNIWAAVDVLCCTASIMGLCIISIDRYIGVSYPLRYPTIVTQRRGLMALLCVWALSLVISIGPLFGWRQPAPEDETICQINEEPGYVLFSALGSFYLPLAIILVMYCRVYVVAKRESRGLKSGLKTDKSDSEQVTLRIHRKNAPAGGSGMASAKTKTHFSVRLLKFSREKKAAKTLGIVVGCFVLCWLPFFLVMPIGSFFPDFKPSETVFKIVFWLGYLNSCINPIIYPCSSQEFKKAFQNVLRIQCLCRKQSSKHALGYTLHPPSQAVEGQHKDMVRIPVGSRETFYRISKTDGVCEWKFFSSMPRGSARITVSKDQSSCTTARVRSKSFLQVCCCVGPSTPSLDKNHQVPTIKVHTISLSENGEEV

[32] = biological target: T1, 5-hydroxytryptamine receptor 2B; test: GPCRScan assay: inhibition of 5-HT2B; set-up: radioligand conc. used [nm] 1.0 – 2.0, parental cells stable HEK
[33] = biological target: Beta-1 adrenergic receptor (Homo sapiens) (UniProt P08588); conditions: Compound concentration 10.0 uM
Chain of Beta-1 adrenergic receptor (Homo sapiens) (P08588 whole entry, looked up): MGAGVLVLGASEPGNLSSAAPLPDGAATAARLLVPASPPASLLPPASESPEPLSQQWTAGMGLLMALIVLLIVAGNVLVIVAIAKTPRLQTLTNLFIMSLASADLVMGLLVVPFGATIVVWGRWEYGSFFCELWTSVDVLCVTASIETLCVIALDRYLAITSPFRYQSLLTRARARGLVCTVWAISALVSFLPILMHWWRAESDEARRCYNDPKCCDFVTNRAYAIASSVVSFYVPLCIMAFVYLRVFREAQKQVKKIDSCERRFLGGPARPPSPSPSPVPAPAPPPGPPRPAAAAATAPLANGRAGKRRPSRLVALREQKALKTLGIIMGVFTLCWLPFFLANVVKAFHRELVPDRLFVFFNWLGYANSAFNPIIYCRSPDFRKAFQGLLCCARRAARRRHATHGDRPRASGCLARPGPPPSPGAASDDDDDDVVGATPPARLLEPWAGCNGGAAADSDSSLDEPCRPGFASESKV

[34] = biological target: 5-hydroxytryptamine receptor 6 (Homo sapiens) (UniProt P50406); conditions: Compound concentration 10.0 uM
[35] = biological target: Kappa-type opioid receptor (Homo sapiens) (UniProt P41145); conditions: Compound concentration 10.0 uM
[36] = biological target: Histamine H4 receptor (Homo sapiens) (UniProt Q9H3N8); conditions: Compound concentration 10.0 uM
Chain of Histamine H4 receptor (Homo sapiens) (Q9H3N8 whole entry): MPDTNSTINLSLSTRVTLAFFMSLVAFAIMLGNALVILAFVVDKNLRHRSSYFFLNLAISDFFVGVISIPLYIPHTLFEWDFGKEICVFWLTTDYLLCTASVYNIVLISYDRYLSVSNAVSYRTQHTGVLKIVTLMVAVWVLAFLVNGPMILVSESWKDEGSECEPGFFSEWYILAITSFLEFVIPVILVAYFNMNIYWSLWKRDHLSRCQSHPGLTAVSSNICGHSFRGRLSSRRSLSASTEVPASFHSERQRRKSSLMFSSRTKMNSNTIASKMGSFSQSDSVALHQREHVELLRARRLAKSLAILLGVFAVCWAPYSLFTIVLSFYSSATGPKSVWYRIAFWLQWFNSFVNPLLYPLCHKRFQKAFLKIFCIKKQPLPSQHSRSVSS

[37] = biological target: Delta-type opioid receptor (Homo sapiens) (UniProt P41143); conditions: Compound concentration 10.0 uM
[38] = biological target: 5-hydroxytryptamine receptor 3A (Homo sapiens) (UniProt P46098); conditions: Compound concentration 10.0 uM
[39] = biological target: D(2) dopamine receptor (Homo sapiens) (UniProt P14416); conditions: Compound concentration 10.0 uM
[40] = biological target: Alpha-1D adrenergic receptor (Homo sapiens) (UniProt P25100); conditions: Compound concentration 10.0 uM
[41] = biological target: Alpha-1B adrenergic receptor (Homo sapiens) (UniProt P35368); conditions: Compound concentration 10.0 uM
[42] = biological target: Muscarinic acetylcholine receptor M5 (Homo sapiens) (UniProt P08912); conditions: Compound concentration 10.0 uM
[43] = biological target: 5-hydroxytryptamine receptor 1A (Homo sapiens, UniProt P08908); test: GPCRScan assay: inhibition of 5-HT1A; set-up: radioligand conc. used [nm] 0.5 – 1.0, parental cells stable CHO
[44] = biological target: Sigma intracellular receptor 2 (Homo sapiens) (UniProt Q5BJF2); conditions: Compound concentration 10.0 uM
Chain of Sigma intracellular receptor 2 (Homo sapiens) (Q5BJF2 whole entry): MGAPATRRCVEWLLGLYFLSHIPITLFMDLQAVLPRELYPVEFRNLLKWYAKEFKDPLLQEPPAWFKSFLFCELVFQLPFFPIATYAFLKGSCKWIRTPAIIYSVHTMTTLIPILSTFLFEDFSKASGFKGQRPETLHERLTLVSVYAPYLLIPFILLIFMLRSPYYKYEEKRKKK

[45] = biological target: Histamine H2 receptor (Homo sapiens) (UniProt P25021); conditions: Compound concentration 10.0 uM

Chain of Alpha-2B adrenergic receptor (Homo sapiens) (P18089 whole entry): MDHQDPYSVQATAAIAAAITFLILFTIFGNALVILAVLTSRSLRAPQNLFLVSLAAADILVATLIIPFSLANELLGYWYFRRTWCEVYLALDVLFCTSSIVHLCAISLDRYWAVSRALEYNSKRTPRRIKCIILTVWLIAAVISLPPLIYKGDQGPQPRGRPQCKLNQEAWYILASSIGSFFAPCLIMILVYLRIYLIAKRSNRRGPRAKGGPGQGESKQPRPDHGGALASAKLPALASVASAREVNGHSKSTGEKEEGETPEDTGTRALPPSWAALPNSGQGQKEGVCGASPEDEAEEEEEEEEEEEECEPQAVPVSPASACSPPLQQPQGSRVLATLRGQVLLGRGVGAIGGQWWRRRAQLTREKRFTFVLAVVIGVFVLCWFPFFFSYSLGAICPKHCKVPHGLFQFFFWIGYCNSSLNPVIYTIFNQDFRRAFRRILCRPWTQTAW

Nc1nc(NCc2ccccc2)nc(-c2ccccc2CO)n1 [Ogerin]
6.83: pEC50 (FLIPR-TETRA assay)
490 nM: Ki ([32]; read-out: pKi (converted))
active: inhibition [14] 81%
inactive: inhibition [1] 43.9% | inhibition [2] 18.1% | inhibition [3] 33.7% | inhibition [4] 24.4% | inhibition [5] 14.8% | inhibition [6] -9.42% | inhibition [7] 18.9% | inhibition [8] 9.32% | inhibition [9] 20.7% | inhibition [10] 10.6% | inhibition [11] 4.35% | inhibition [12] 11.9% | inhibition [13] 2.78% | inhibition [15] 4.96% | inhibition [16] 19.7% | inhibition [17] 32.9% | inhibition [18] 23.6% | inhibition [19] -1.93% | inhibition [20] -4.07% | inhibition [21] -0.41% | inhibition [22] 23.2% | inhibition [23] 36% | inhibition [24] 43.9% | inhibition [25] 0.87% | inhibition [26] 9.7% | inhibition [27] 11.2% | inhibition [28] 43.9% | inhibition [29] 7.41% | inhibition (Rattus norvegicus) 12.9% | inhibition [30] 32.1% | inhibition [31] 25.5% | inhibition [33] 25.5% | inhibition [34] 19.4% | inhibition [35] 30.2% | inhibition [36] 8.3% | inhibition [37] 12.5% | inhibition [38] 2.24% | inhibition [39] 10% | inhibition [40] 4.63%
496 nM: Ki ([32]; read-out: Ki)

Nc1nc(NCc2ccccc2)nc(-c2cccc(CO)c2)n1 [ZINC32547799]
850 nM: Ki ([43]; read-out: Ki)
inactive: inhibition [1] 21.8% | inhibition [2] -9.76% | inhibition [3] 3.99% | inhibition [41] 5.01% | inhibition [4] 7.24% | inhibition [5] 17.8% | inhibition [6] 21.6% | inhibition [7] 8.38% | inhibition [8] 3.72% | inhibition [9] 18% | inhibition [10] 0.66% | inhibition [11] 24.4% | inhibition [12] 8.68% | inhibition [42] 12.8% | inhibition [13] 1.28% | inhibition [14] 41.8% | inhibition [15] 9.44% | inhibition [17] 18.3% | inhibition [18] 35.2% | inhibition [19] 6.14% | inhibition [20] -5.64% | inhibition [21] 0.95% | inhibition [22] 10.8% | inhibition [23] 18.3% | inhibition [24] 15.9% | inhibition [25] 1.4% | inhibition [27] 13.7% | inhibition [44] 12.3% | inhibition [29] -2.86% | inhibition (Rattus norvegicus) 8.6% | inhibition [30] 43.6% | inhibition [31] 5.91% | inhibition [33] -3.07% | inhibition [34] 26.7% | inhibition [35] 10.8% | inhibition [45] 4.01% | inhibition [36] -9.05% | inhibition [37] 9.2% | inhibition [38] 37.2% | inhibition [39] -7.4% | inhibition [40] -8.75%
832 nM: Ki ([43]; read-out: pKi (converted))
active: inhibition [26] 65.5%
